{"source": "patent US9278982B2", "about": "“Targeting human thymidylate kinase induces DNA repair toxicity in malignant tumor cells” (NATIONAL YANG-MING UNIVERSITY, priority 2010, dated 2016)", "key": {"[1]": {"tested_on": "HCT-116 p53−/− cells", "assay": "Whole-cell dTTP extraction and quantification", "assay_type": "cell-based, human", "procedure": "FIG. 13. Effect of YMU1 on cellular dTTP level. HCT-116 p53−/− cells were transfected with or without TMPK siRNA for 2 days and treated with vehicle or YMU1. After 72 h, cells were harvested for Western blot analysis and dNTP level determination (mean±s.d., n=3; **, P<0.01 based on a two-tailed Student's t-test).\nThe investigators performed additional experiments to determine the effect of YMU1 treatment on cellular dTTP levels. YMU1 treatment in cells reduced dTTP pool about 30-40% after treatment with YMU1 for 3 days (FIG. 13). Transfection of these cells with siRNA to knock-down TMPK expression reduced the dTTP pool size in a similar magnitude.\n10^6 cells were extracted with 1 ml of ice-cold 60% methanol at −20° C. overnight, followed by centrifugation for 30 min at 16,000×g. The supernatant was immersed at 100° C. in dry bath for 3 min and dried under vacuum. The dry residue was dissolved in 80 μl of nuclease free water and used for cellular dNTP measurement according to the method described by Ferraro et al. (Ferraro et al., 2010)."}, "[2]": {"tested_on": "CL-1-0", "assay": "Doxorubicin sensitization, MTS viability assay", "assay_type": "cell-based, human", "conditions": "doxorubicin sensitivity, YMU1 vs vehicle", "procedure": "(§1) FIG. 16. In vitro and in vivo effect of YMU1 on doxorubicin sensitization. (A) A panel of cell lines were pre-treated with vehicle, YMU1 (compound 21), D6 (ethyl 4-(2-chloroacetyl)piperazine-1-carboxylate) or D7 (compound 28) for 3 days and were exposed to different concentration of doxorubicin for 4 h. […] The enhancement (fold) of doxorubicin sensitivity in each cell line was calculated. Data represent mean±s.d., n=3; each experiment was quadruplex. Inset indicates the IC50 value of doxorubicin in various cell lines. […] Following overnight culture, cells were refreshed with growth medium. After 14 days of culture, colonies were fixed, stained by crystal violet and counted. (C) HCT-116 p53^−/− cells were subcutaneously implanted in the right flank of Balb/c nude mice (each experimental group n=8). Arrow indicated the time of stopping drug treatment. The tumor volume was estimated as described in Methods of the Invention section. (D) After 2 weeks recovered from treatment, mice were sacrificed for tumor weight measurement. Data represent mean±s.e.m; **, P<0.01 by a two-tailed Student's t-test. (E) Ki 67 proliferation marker staining of tumor shown in left panel. Scale bar, 50 μm. (F) Model of doxorubicin sensitization by YMU1 in malignant cancer cells. Both R2/R1 and TMPK are recruited to the site of doxorubicin-induced double-strand breaks, where dATP, dGTP, dCTP, dTTP and dUTP are site-specific synthesized. Inhibition of TMPK decreases dTTP formation at DNA damage sites, causing futile DNA repair due to dUTP incorporation.\n(§2) Next, various human cancer cell lines were treated with YMU1, D6 or D7 for 72 h to test the potential of TMPK inhibitor in doxorubicin sensitization. After exposure to different concentration of doxorubicin for 4 h, cells were refreshed for viability analysis after 2 days and the IC50 value for doxorubicin in each of the cell lines was determined (FIG. 16A and Table 2).\n(§3) Cells plated into a 96-well plate (10^3 cells/well) were treated and cell viability was measured by MTS assay (Promega) (Cory et al., 1991). An annexin V-fluorescein isothiocyanate (FITC) apoptosis kit (Calbiochem) was used to detect apoptosis. The cell cycle analysis was performed by staining cells with propidium iodide (PI) for fluorescence-activated cell sorter (FACS) analysis with CellQuest software."}, "[3]": {"tested_on": "HCT-116p53+/+", "assay": "Doxorubicin sensitization, MTS viability assay", "assay_type": "cell-based, human", "conditions": "doxorubicin sensitivity, YMU1 vs vehicle", "procedure": "as §1, §2, §3"}, "[4]": {"tested_on": "HCT-116 p53−/− cells", "assay": "In vivo xenograft model, sensitization to low-dose doxorubicin", "set-up": "species or system Balb/c nude mice", "procedure": "as §1, with “Both R2/R1 and TMPK are recruited to the site of doxorubicin-induced double-strand breaks, where dATP, dGTP, dCTP, dTTP and dUTP are site-specific synthesized. Inhibition of TMPK decreases dTTP formation at DNA damage sites, causing futile DNA repair due to dUTP incorporation.” left out\nWe also used an in vivo xenograft model to examine the effect of YMU1 as an adjuvant on sensitization to low-dose doxorubicin treatment. […] Two weeks after the last injections were administered, mice were sacrificed and tumor weights measured. […]\nFemale BALB/c AnN.Cg-Foxnl^nu/Crl Nurl mice 6-8 weeks of age (National Laboratory Animal Center, Taiwan) were used for the tumor xenograft model. […] The tumor size was measured every day after initiated drug treatment with an electronic caliper. […]\nMonoclonal Ki 67 antibody (B56) was purchased from BD PharMingen. Paraffin-embedded tumor sections (5 μm) were incubated with the primary antibody, detected with a LSAB™ kit (DakoCytomation) according to the manufacturer's instructions and counterstained with hematoxylin."}}, "data": [{"smiles": "CCOC(=O)N1CCN(C(=O)Cn2sc3nc(C)cc(C)c3c2=O)CC1", "note": "[compound 21, Ethyl 4-(2-(4,6-dimethyl-3-oxoisothiazolo[5,4-b]pyridin-2(3H)-yl)acetyl) piperazine-1-carboxylate]", "values": [{"measurement": "further reduction of dTTP pool in TMPK knockdown cells", "setting": "[1]; cells transfected with TMPK siRNA, then YMU1", "result": "did not cause a further reduction"}, {"measurement": "reduction of dTTP pool", "setting": "[1]; treatment with YMU1 for 3 days", "result": "30-40%"}, {"measurement": "Enhancement fold", "setting": "[2]", "result": 6.0, "unit": "fold"}, {"measurement": "Enhancement fold", "setting": "[3]", "result": 6.3, "unit": "fold"}, {"measurement": "growth of tumors, YMU1 combined with doxorubicin", "setting": "[4]; YMU1 15 mg/kg thrice a week + doxorubicin 1.25 mg/kg twice a week, i.p., 4 weeks", "result": "much slower"}, {"measurement": "tumor proliferation index (Ki 67 immunostaining), YMU1 combined with doxorubicin", "setting": "[4]; combinatory treatment of YMU1 and doxorubicin", "result": "clearly reduced"}, {"measurement": "average tumor size relative to control mice, YMU1 combined with doxorubicin", "setting": "[4]; two weeks after the last injections, YMU1 15 mg/kg thrice a week + doxorubicin 1.25 mg/kg twice a week, i.p.", "result": 25, "unit": "%"}]}]}
